Experimental data as given in patent US20090018134A1, “Compounds - 945” (AstraZeneca AB, priority 2007, published 2009).

The compounds below were run against T1, mTOR (Homo sapiens, UniProt P42345) (assay: In Vitro mTOR Kinase Assay (Echo), Test (a)(ii)). Settings: table of enzyme assay Test (a)(ii); read-out: Test (a)(ii) IC50.
T1 construct: FLAG; made in house
T1 sequence (P42345 1362-2549): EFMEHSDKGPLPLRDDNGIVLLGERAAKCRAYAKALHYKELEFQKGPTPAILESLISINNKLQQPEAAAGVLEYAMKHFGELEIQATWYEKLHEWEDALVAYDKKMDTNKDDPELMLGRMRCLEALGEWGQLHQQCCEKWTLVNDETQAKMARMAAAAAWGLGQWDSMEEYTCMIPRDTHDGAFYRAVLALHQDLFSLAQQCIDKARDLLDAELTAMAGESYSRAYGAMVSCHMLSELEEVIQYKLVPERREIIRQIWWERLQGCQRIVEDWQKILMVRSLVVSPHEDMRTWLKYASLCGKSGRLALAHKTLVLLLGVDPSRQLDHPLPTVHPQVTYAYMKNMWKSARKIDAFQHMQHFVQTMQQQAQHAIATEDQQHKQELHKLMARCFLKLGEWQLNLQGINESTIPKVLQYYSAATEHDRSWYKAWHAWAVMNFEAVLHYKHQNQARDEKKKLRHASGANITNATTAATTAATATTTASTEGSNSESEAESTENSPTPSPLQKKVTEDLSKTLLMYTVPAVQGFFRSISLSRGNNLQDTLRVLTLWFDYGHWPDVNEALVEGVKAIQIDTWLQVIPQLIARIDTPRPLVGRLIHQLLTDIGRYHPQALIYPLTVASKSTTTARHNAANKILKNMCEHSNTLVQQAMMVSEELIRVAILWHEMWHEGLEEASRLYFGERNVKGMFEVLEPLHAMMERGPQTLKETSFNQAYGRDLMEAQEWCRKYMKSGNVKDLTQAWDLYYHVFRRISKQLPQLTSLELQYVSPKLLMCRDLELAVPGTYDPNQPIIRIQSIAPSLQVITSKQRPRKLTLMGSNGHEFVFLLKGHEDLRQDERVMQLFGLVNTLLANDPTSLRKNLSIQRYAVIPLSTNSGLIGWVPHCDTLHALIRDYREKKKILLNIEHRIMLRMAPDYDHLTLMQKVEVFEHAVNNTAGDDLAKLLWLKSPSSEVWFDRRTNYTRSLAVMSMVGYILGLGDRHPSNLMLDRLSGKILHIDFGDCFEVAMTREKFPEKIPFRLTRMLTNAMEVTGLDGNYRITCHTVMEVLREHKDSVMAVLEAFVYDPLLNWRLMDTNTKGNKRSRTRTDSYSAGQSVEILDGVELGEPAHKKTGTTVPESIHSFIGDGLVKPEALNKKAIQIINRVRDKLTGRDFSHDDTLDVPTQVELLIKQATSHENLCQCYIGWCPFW
Assay type: biochemical
Procedure, shortened: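 FLAG-tagged truncated mTOR (residues 1362-2549), expressed in HEK293 and purified via the FLAG tag, phosphorylated a biotinylated peptide over 2 hours at room temperature. EDTA stopped the reaction. Phospho-T389 was detected overnight by AlphaScreen using the p70 S6K T389 antibody with Protein A/streptavidin beads; IC50 reported.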
`C[C@H]1COCCN1c1cc(C2(S(=O)(=O)C(C)(C)C)CC2)nc(-c2ccc(NC(=O)Nc3cnn(C)c3)cc2)n1` [Example 18m, 1-[4-[4-(1-tert-butylsulfonylcyclopropyl)-6-[(3S)-3-methylmorpholin-4-yl]pyrimidin-2-yl]phenyl]-3-(1-methylpyrazol-4-yl)urea] showed an IC50 of 3.15 nM. `C[C@H]1COCCN1c1cc(C2(S(=O)(=O)c3cc(F)cc(F)c3)CC2)nc(-c2ccc(NC(=O)NC3CC3)cc2)n1` [Example 19, 3-Cyclopropyl-1-[4-[4-[1-(3,5-difluorophenyl)sulfonylcyclopropyl]-6-[(3S)-3-methylmorpholin-4-yl]pyrimidin-2-yl]phenyl]urea] showed an IC50 of 1.31 nM. Work on `C[C@H]1COCCN1c1cc(C2(S(=O)(=O)c3cc(F)cc(F)c3)CC2)nc(-c2ccc(NC(=O)NC3CCC3)cc2)n1` [Example 19a, 3-cyclobutyl-1-[4-[4-[1-(3,5-difluorophenyl)sulfonylcyclopro-pyl]-6-[(3S)-3-methylmorpholin-4-yl]pyrimidin-2-yl]phenyl]urea] yielded an IC50 of 4.25 nM. `C[C@H]1COCCN1c1cc(C2(S(=O)(=O)c3cc(F)cc(F)c3)CC2)nc(-c2ccc(NC(=O)Nc3ccccn3)cc2)n1` [Example 19b, 1-[4-[4-[1-(3,5-difluorophenyl)sulfonylcyclopro-pyl]-6-[(3S)-3-methylmorpholin-4-yl]pyrimidin-2-yl]phenyl]-3-pyridin-2-ylurea] gave an IC50 of 1.19 nM. For `CC(C)CNC(=O)Nc1ccc(-c2nc(N3CCOC[C@@H]3C)cc(C3(S(=O)(=O)c4cc(F)cc(F)c4)CC3)n2)cc1` [Example 19c, 1-[4-[4-[1-(3,5-difluorophenyl)sulfonylcyclopro-pyl]-6-[(3S)-3-methylmorpholin-4-yl]pyrimidin-2-yl]phenyl]-3-(2-methylpropyl)urea], the IC50 was 21.4 nM. With `CC(C)NC(=O)Nc1ccc(-c2nc(N3CCOC[C@@H]3C)cc(C3(S(=O)(=O)c4cc(F)cc(F)c4)CC3)n2)cc1` [Example 19d, 1-[4-[4-[1-(3,5-difluorophenyl)sulfonylcyclopro-pyl]-6-[(3S)-3-methylmorpholin-4-yl]pyrimidin-2-yl]phenyl]-3-propan-2-ylurea] the IC50 was 3.18 nM. `CCNC(=O)Nc1ccc(-c2nc(N3CCOC[C@@H]3C)cc(C3(S(=O)(=O)c4cc(F)cc(F)c4)CC3)n2)cc1` [Example 19e, 1-[4-[4-[1-(3,5-difluorophenyl)sulfonylcyclopro-pyl]-6-[(3S)-3-methylmorpholin-4-yl]pyrimidin-2-yl]phenyl]-3-ethylurea] showed an IC50 of 1.35 nM. Compound `C[C@H]1COCCN1c1cc(C2(S(=O)(=O)c3cc(F)cc(F)c3)CC2)nc(-c2ccc(NC(=O)NCCN(C)C)cc2)n1` [Example 19f, 1-[4-[4-[1-(3,5-difluorophenyl)sulfonylcyclopro-pyl]-6-[(3S)-3-methylmorpholin-4-yl]pyrimidin-2-yl]phenyl]-3-(2-dimethylaminoethyl)urea] has an IC50 of 80.4 nM. With `C[C@H]1COCCN1c1cc(C2(S(=O)(=O)c3cc(F)cc(F)c3)CC2)nc(-c2ccc(NC(=O)NCCO)cc2)n1` [Example 19g, 1-[4-[4-[1-(3,5-difluorophenyl)sulfonylcyclopro-pyl]-6-[(3S)-3-methylmorpholin-4-yl]pyrimidin-2-yl]phenyl]-3-(2-hydroxyethyl)urea] the IC50 was 0.274 nM. For `CCCNC(=O)Nc1ccc(-c2nc(N3CCOC[C@@H]3C)cc(C3(S(=O)(=O)c4cc(F)cc(F)c4)CC3)n2)cc1` [Example 19h, 1-[4-[4-[1-(3,5-difluorophenyl)sulfonylcyclopro-pyl]-6-[(3S)-3-methylmorpholin-4-yl]pyrimidin-2-yl]phenyl]-3-propylurea], the IC50 was 2.46 nM. `CNC(=O)Nc1ccc(-c2nc(N3CCOC[C@@H]3C)cc(C3(S(=O)(=O)c4cc(F)cc(F)c4)CC3)n2)cc1` [Example 19i, 1-[4-[4-[1-(3,5-difluorophenyl)sulfonylcyclopro-pyl]-6-[(3S)-3-methylmorpholin-4-yl]pyrimidin-2-yl]phenyl]-3-methylurea] gave an IC50 of 1.52 nM. `C[C@H]1COCCN1c1cc(C2(S(=O)(=O)c3cc(F)cc(F)c3)CC2)nc(-c2ccc(NC(=O)Nc3ccc(C(F)(F)F)cc3)cc2)n1` [Example 19j, 1-[4-[4-[1-(3,5-difluorophenyl)sulfonylcyclopro-pyl]-6-[(3S)-3-methylmorpholin-4-yl]pyrimidin-2-yl]phenyl]-3-[4-(trifluoromethyl)phenyl]urea] gave an IC50 of 19.9 nM. Work on `C[C@H]1COCCN1c1cc(C2(S(=O)(=O)c3cc(F)cc(F)c3)CC2)nc(-c2ccc(NC(=O)NC(C)(C)CO)cc2)n1` [Example 19k, 1-[4-[4-[1-(3,5-difluorophenyl)sulfonylcyclopro-pyl]-6-[(3S)-3-methylmorpholin-4-yl]pyrimidin-2-yl]phenyl]-3-(1-hydroxy-2-methylpropan-2-yl)urea] yielded an IC50 of 4.15 nM. Work on `C[C@H]1COCCN1c1cc(C2(S(=O)(=O)c3cc(F)cc(F)c3)CC2)nc(-c2ccc(NC(=O)NCCCO)cc2)n1` [Example 19l, 1-[4-[4-[1-(3,5-difluorophenyl)sulfonylcyclopro-pyl]-6-[(3S)-3-methylmorpholin-4-yl]pyrimidin-2-yl]phenyl]-3-(3-hydroxypropyl)urea] yielded an IC50 of 1.52 nM. With `C[C@H]1COCCN1c1cc(C2(S(=O)(=O)c3cc(F)cc(F)c3)CC2)nc(-c2ccc(NC(=O)Nc3cnn(C)c3)cc2)n1` [Example 19m, 1-[4-[4-[1-(3,5-difluorophenyl)sulfonylcyclopro-pyl]-6-[(3S)-3-methylmorpholin-4-yl]pyrimidin-2-yl]phenyl]-3-(1-methylpyrazol-4-yl)urea] the IC50 was 0.944 nM. In the case of `C[C@H]1COCCN1c1cc(C2(S(C)(=O)=O)CCNCC2)nc(-c2ccc(NC(=O)NC3CC3)cc2)n1` [Example 20, 3-Cyclopropyl-1-[4-[4-[(3S)-3-methylmorpholin-4-yl]-6-(4-methylsulfonylpiperidin-4-yl)pyrimidin-2-yl]phenyl]urea], the IC50 is reported as 12.8 nM. In the case of `CNC(=O)Nc1ccc(-c2nc(N3CCOC[C@@H]3C)cc(C3(S(C)(=O)=O)CCNCC3)n2)cc1` [Example 20a, 3-methyl-1-[4-[4-[(3S)-3-methylmorpholin-4-yl]-6-(4-methylsulfonylpiperidin-4-yl)pyrimidin-2-yl]phenyl]urea], the IC50 is reported as 16.3 nM. In the case of `C[C@H]1COCCN1c1cc(C2(S(C)(=O)=O)CCNCC2)nc(-c2ccc(NC(=O)NCCN(C)C)cc2)n1` [Example 20b, 3-(2-dimethylaminoethyl)-1-[4-[4-[(3S)-3-methylmorpholin-4-yl]-6-(4-methylsulfonylpiperidin-4-yl)pyrimidin-2-yl]phenyl]urea], the IC50 is reported as 874 nM. Work on `C[C@H]1COCCN1c1cc(C2(S(C)(=O)=O)CCNCC2)nc(-c2ccc(NC(=O)NCCO)cc2)n1` [Example 20c, 3-(2-hydroxyethyl)-1-[4-[4-[(3S)-3-methylmorpholin-4-yl]-6-(4-methylsulfonylpiperidin-4-yl)pyrimidin-2-yl]phenyl]urea] yielded an IC50 of 5.59 nM. With `C[C@H]1COCCN1c1cc(C2(S(C)(=O)=O)CCNCC2)nc(-c2ccc(NC(=O)Nc3cnn(C)c3)cc2)n1` [Example 20d, 1-[4-[4-[(3S)-3-methylmorpholin-4-yl]-6-(4-methylsulfonylpiperidin-4-yl)pyrimidin-2-yl]phenyl]-3-(1-methylpyrazol-4-yl)urea] the IC50 was 13.3 nM. `C[C@H]1COCCN1c1cc(C2(S(=O)(=O)C3CC3)CCNCC2)nc(-c2ccc(NC(=O)NC3CC3)cc2)n1` [Example 21, 3-Cyclopropyl-1-[4-[4-(4-cyclopropylsulfonylpiperidin-4-yl)-6-[(3S)-3-methylmorpholin-4-yl]pyrimidin-2-yl]phenyl]urea] was tested, and the IC50 was 25.3 nM. For `CNC(=O)Nc1ccc(-c2nc(N3CCOC[C@@H]3C)cc(C3(S(=O)(=O)C4CC4)CCNCC3)n2)cc1` [Example 21a, 1-[4-[4-(4-cyclopropylsulfonylpiperidin-4-yl)-6-[(3S)-3-methylmorpholin-4-yl]pyrimidin-2-yl]phenyl]-3-methylurea], the IC50 was 37.8 nM. `C[C@H]1COCCN1c1cc(C2(S(=O)(=O)C3CC3)CCNCC2)nc(-c2ccc(NC(=O)NCCO)cc2)n1` [Example 21b, 1-[4-[4-(4-cyclopropylsulfonylpiperidin-4-yl)-6-[(3S)-3-methylmorpholin-4-yl]pyrimidin-2-yl]phenyl]-3-(2-hydroxyethyl)urea] was tested, and the IC50 was 13.3 nM. In the case of `C[C@H]1COCCN1c1cc(C2(S(=O)(=O)C3CC3)CCNCC2)nc(-c2ccc(NC(=O)Nc3cnn(C)c3)cc2)n1` [Example 21c, 1-[4-[4-(4-cyclopropylsulfonylpiperidin-4-yl)-6-[(3S)-3-methylmorpholin-4-yl]pyrimidin-2-yl]phenyl]-3-(1-methylpyrazol-4-yl)urea], the IC50 is reported as 23.4 nM. `C[C@H]1COCCN1c1cc(C2(S(=O)(=O)c3cc(F)cc(F)c3)CCN(Cc3ccccc3)CC2)nc(-c2ccc(NC(=O)NC3CC3)cc2)n1` [Example 22, 1-[4-[4-[1-Benzyl-4-(3,5-difluorophenyl)sulfonylpiperidin-4-yl]-6-[(3S)-3-methylmorpholin-4-yl]pyrimidin-2-yl]phenyl]-3-cyclopropylurea] showed an IC50 of 503 nM. Compound `CNC(=O)Nc1ccc(-c2nc(N3CCOC[C@@H]3C)cc(C3(S(C)(=O)=O)CCOCC3)n2)cc1` [Example 23a, 3-methyl-1-[4-[4-[(3S)-3-methylmorpholin-4-yl]-6-(4-methylsulfonyloxan-4-yl)pyrimidin-2-yl]phenyl]urea] has an IC50 of 4.59 nM. In the case of `C[C@H]1COCCN1c1cc(C2(S(C)(=O)=O)CCOCC2)nc(-c2ccc(NC(=O)NCCN(C)C)cc2)n1` [Example 23b, 3-(2-dimethylaminoethyl)-1-[4-[4-[(3S)-3-methylmorpholin-4-yl]-6-(4-methylsulfonyloxan-4-yl)pyrimidin-2-yl]phenyl]urea], the IC50 is reported as 197 nM. Compound `C[C@H]1COCCN1c1cc(C2(S(C)(=O)=O)CCOCC2)nc(-c2ccc(NC(=O)NCCO)cc2)n1` [Example 23c, 3-(2-hydroxyethyl)-1-[4-[4-[(3S)-3-methylmorpholin-4-yl]-6-(4-methylsulfonyloxan-4-yl)pyrimidin-2-yl]phenyl]urea] has an IC50 of 0.831 nM.
